Assays:
tubulin [1] = assay: Tubulin binding assay (fluorescence quenching, dissociation constant); conditions: 2 μM tubulin, 25 mM PIPES pH 6.8, 30 min at 25° C.; double reciprocal plot; mean±SD, four experiments
Experimental: Noscapine and 9-aminonoscapine (0-150 μM) were incubated with 2 μM tubulin in 25 mM PIPES, pH 6.8, 3 mM MgSO4, and 1 mM EGTA for 30 min at 25° C. The fluorescence intensities of tubulin in the absence and presence of different concentrations of the agents were monitored in a JASCO FP-6500 spectrofluorometer (JASCO, Tokyo, Japan) using a cuvette of 0.3-cm path length.
The excitation wavelength was 295 nm. The inner filter effects were corrected using a formula: […],
where Aex and Aem are the absorbance at the excitation and emission wavelengths.
The dissociation constant (Kd) was estimated using the following equation. ΔF=ΔFmaxL/(Kd+L)
where, ΔF is change in the fluorescence intensity of the tubulin upon binding to noscapine or 9-aminonoscapine, ΔFmax is the maximum change in the fluorescence intensity of the protein when it is fully bound with noscapine or 9-aminonoscapine, and L is the concentration of the ligand.
The ΔFmax value was calculated by the GraphPad Prism 5 software. ΔF was calculated by subtracting the fluorescence intensity of tubulin in the absence of noscapine or 9-aminonoscapine from the fluorescence intensity of tubulin in the presence of different concentrations of noscapine or 9-aminonoscapine.
The data were statistically analyzed and curve fitted using GraphPad Prism 5 software. […]

tubulin [2] = assay: Sedimentation assay of tubulin polymerization (polymer mass); assay type: biochemical; conditions: for Average % increase in polymer level: tubulin 10 μM, 37° C., 30 min
Experimental: Tubulin solution was centrifuged for 10 min at 80000 g at 4° C. Soluble tubulin was measured by Bradford method. Tubulin (10 μM) was mixed with different concentrations of 9-amino-Noscapine ([…]) in the assembly buffer (100 mM PIPES at pH 6.8, 3 mM MgSO4, 1 mM EGTA, 1 mM GTP, and 1 M sodium glutamate). A reaction control with DMSO was also set up.
Polymerization was carried on by maintaining the temperature at 37° C. in the water bath for 30 min. After polymerization, the reaction mixture was centrifuged at 120000 g at 30° C. for 30 min. The soluble tubulin content was measured by Bradford method. Polymer mass of tubulin was found out by deducting soluble tubulin mass from the total tubulin content.
Tubulin was polymerized in presence or absence of 9-aminonoscapine to observe its effect on polymer formation. Polymer mass of tubulin was measured by sedimentation assay. Before polymerization soluble tubulin comprises total tubulin. Total tubulin content was measured by measuring soluble tubulin by Bradford method. After polymerization, soluble tubulin content was measured and deducted from total tubulin content to find out the polymeric tubulin level.

[3] = tested on: panel of 60 human tumor cell lines; assay: NCI 60-tumor cell line panel, Sulforhodamine B proliferation assay; assay type: cell-based; conditions: 48 h treatment, in words; IC50 values only in FIG. 2
Experimental: The panel of 60 human tumor cell lines is organized into subpanels representing leukemia, non-small cell lung, colon, CNS, melanoma, renal, ovarian, breast and prostrate cancer lines. Cells were treated with 9-aminonoscapine at increasing gradient concentrations for 48 h. The IC50 values, which stand for the drug concentration needed to prevent cell proliferation by 50% was then measured using an in vitro Sulforhodamine B assay. Panels show bar-graphically the comparison of IC50 values of 9-aminonoscapine (black bars) for cancer cell lines of various tissue origins.

[4] = tested on: 1A9 (ovarian cancer cells); assay: Cell proliferation inhibition, 1A9; assay type: cell-based; conditions: 1A9, in words
[5] = tested on: paclitaxel-resistant variant (1A9/PTX22); assay: Cell proliferation inhibition, 1A9/PTX22; assay type: cell-based; conditions: 1A9/PTX22, in words
[6] = tested on: human lymphoblastoid cells CEM; assay: Cell proliferation inhibition, CEM; assay type: cell-based; conditions: in words
[7] = tested on: vinblastine-resistant variant CEM/VLB100; assay: Cell proliferation inhibition, CEM/VLB100; assay type: cell-based, human; conditions: CEM/VLB100, in words
[8] = tested on: teniposide-resistant variant CEM/VM-1-5; assay: Cell proliferation inhibition, CEM/VM-1-5; assay type: cell-based, human; conditions: CEM/VM-1-5, in words

Kd (tubulin [1]) [µM] | Compound | Average % increase in polymer level (tubulin [2]; 25 μM 9-aminonoscapine) [%] | Average % increase in polymer level (tubulin [2]; 50 μM 9-aminonoscapine) [%] | Average % increase in polymer level (tubulin [2]; 100 μM 9-aminonoscapine) [%] | Average % increase in polymer level (tubulin [2]; 100 μM 9-aminonoscapine, listed as 9-amino-noscapine) [%] | effect on the assembly of tubulin into microtubules in vitro (tubulin [2]; in words) | proliferation of various human cancer cells [3] | inhibition of cell proliferation [4] | inhibition of cell proliferation [5] | inhibition of cell proliferation [6] | inhibition of cell proliferation [7] | inhibition of cell proliferation [8]
152 ± 1 | COc1ccc2c(c1OC)C(=O)O[C@@H]2[C@H]1c2c(cc3c(c2OC)OCO3)CCN1C [noscapine, (S)-6,7-dimethoxy-3-((R)-4-methoxy-6-methyl-5,6,7,8-tetrahydro[1,3]-dioxolo-[4,5-g]isoquinolin-5-yl)isobenzo-furan-1(3H)-one] |  |  |  |  |  |  |  |  |  |  | 
14 ± 1 | COc1ccc2c(c1OC)C(=O)O[C@@H]2[C@H]1c2c(c(N)c3c(c2OC)OCO3)CCN1C [9-aminonoscapine, (S)-6,7-dimethoxy-3-((R)-4-methoxy-6-methyl-9-amino-5,6,7,8-tetrahydro-[1,3]dioxolo[4,5-g]isoquinolin-5-yl)isobenzofuran-1(3H)-one] | 2.8 ± 0.98 | 3.2 ± 3.6 | 6.3 ± 3.8 | 6.3±3.8 | negligible effect | inhibits the proliferation | effectively inhibits cell proliferation | effectively inhibits cell proliferation | effectively inhibits cell proliferation | effectively inhibits cell proliferation | effectively inhibits cell proliferation

Reference: patent US8815835B2, “9-aminonoscapine and its use in treating cancers, including drug-resistant cancers” (Emory University, priority 2008, dated 2014)
